Experimental data as given in patent US9487553B2, “Boranophosphate analogues of cyclic nucleotides” (BIOLOG LIFE SCIENCE INSTITUTE FORSCHUNGSLABOR UND …, priority 2011, dated 2016).

What was measured:
[1] = target: T1, protein kinase G I α (Homo sapiens, UniProt Q13976); test: Protein kinase G I alpha activation, phosphotransferyl assay; format: biochemical; settings: 10 nM, 100 nM and 1 μM
T1 sequence (Q13976 1-671): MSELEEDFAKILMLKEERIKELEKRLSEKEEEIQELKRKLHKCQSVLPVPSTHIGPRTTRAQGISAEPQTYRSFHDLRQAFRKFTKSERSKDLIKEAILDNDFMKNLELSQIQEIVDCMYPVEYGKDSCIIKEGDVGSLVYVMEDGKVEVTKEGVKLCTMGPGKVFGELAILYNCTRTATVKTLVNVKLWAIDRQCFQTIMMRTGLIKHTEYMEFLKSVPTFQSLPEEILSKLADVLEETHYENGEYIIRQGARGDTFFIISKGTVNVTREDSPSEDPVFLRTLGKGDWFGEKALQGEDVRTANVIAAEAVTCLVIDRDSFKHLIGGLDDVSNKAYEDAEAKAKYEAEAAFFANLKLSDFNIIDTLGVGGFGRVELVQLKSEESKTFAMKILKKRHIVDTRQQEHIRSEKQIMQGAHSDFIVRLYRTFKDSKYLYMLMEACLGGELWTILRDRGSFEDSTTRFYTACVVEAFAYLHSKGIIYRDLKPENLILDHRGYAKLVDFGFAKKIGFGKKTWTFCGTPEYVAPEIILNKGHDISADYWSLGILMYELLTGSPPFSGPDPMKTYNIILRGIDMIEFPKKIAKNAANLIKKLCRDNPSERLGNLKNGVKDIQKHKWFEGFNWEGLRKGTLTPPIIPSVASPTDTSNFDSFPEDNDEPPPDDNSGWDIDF
Text: Next, the activity profile of some cyclic boranophosphates disclosed in this invention has also been investigated on protein kinase G I α (FIGS. 8 and 9). Potential activatory potential towards the enzyme has been determined by a standard phosphotransferyl assay protocol according to Dostmann et al. (Dostmann, W. R.; Nickl, C.; Thiel, S.; Tsigelny, I.; Frank, R.; and Tegge, W. J., Pharmacol. Ther., 82, 373-387 (1999). FIG. 8 depicts the activity (μmol×min^−1×mg^−1) overview of six different cyclic boranophosphate analogues with protein kinase G type I at 10 nM, 100 nM and 1 μM. BLG-9108: […]; BLG-9110: Sp-8-Br-cAMPB; BLG-9111: Rp-8-Br-cAMPB; BLG-9112: Sp-8-Br-cGMPB; BLG-9113: Rp-8-Br-cGMPB; control: cyclic GMP.

[2] = target: T2, PDE IV (A4B) (Homo sapiens, UniProt P27815); test: Stability against PDE IV, HPLC; format: in vitro ADME; settings: several days
T2 construct: Houslay lab, Glasgow/Scotland (obtained from another laboratory)
Protocol: Next, stability of the disclosed boranophosphates against PDE IV (A4B, Houslay lab, Glasgow/Scotland) was tested in similar experiments as described above.

[3] = Degradation Example 1: oxidation with hydrogen peroxide, monitored by HPLC; format: physicochemical; settings: after further addition of 10 μl of 30% H2O2, two hours at RT
Text: In order to check out the stability of the boranophosphates described in this invention towards oxidising conditions in comparison to the corresponding phosphorothioates, 0.1 μmol of the sodium salts of each, Rp-8-bromoadenosine-3′,5′-cyclic boranophosphate (Rp-8-Br-cAMPB, example 1), Sp-8-bromoadenosine-3′,5′-cyclic boranophosphate (Sp-8-Br-cAMPB, example 2), Rp-8-bromoadenosine-3′,5′-cyclic phosphorothioate (Rp-8-Br-cAMPS, Biolog) and Sp-8-bromoadenosine-3′,5′-cyclic phosphorothioate (Sp-8-Br-cAMPS, Biolog) were dissolved in 100 μl of eluent and the mixture was analyzed by HPLC (RP-18, 11% acetonitrile, 20 mM triethylammonium formate buffer, pH 6.1, 1.5 ml/min, UV 258 nm). The following elution profile was recorded: Rp-8-Br-cAMPS (5:13 min.)<Sp-8-Br-cAMPS (7:23 min.)<Sp-8-Br-cAMPB (9:13 min.)<Rp-8-Br-cAMPB ([…].).
Subsequently, aqueous hydrogen peroxide (Merck) was added in small portions while the stability of the four compounds was permanently monitored over time.
10 μl of H2O2 (0.3%) as well as 10 μl of 3% H2O2 were added to no effect.

[4] = test system: PDE 1 from bovine heart; test: Resistance towards phosphodiesterase: incubation with PDE 1 from bovine heart, HPLC
Protocol: For this purpose 0.1 μmol of Rp-8-bromoadenosine-3′,5′-cyclic boranophosphate (example 1) and Sp-8-bromoadenosine-3′,5′-cyclic boranophosphate […] dissolved in TRIS buffer pH 7.2 containing calcium chloride and calmodulin and incubated with PDE type I from bovine brain (Sigma-Aldrich) at 37° C. Activity of the enzyme was checked by hydrolysis of cyclic AMP. Stability was monitored by HPLC (RP-18, 11 Vol.-% propanol-2, 20 mM TEAF buffer, pH 6.8, 1 ml/min., UV 264 nm). […] This strategy of testing PDE performance was applied accordingly in degradation examples 10 and 11.
Thus, Rp-8-Br-cAMPB (example 1) and Sp-8-Br-cAMPS (Biolog, Bremen/Germany) were incubated with PDE 1 from bovine heart (Sigma-Aldrich) and monitored by HPLC as described above.
Rp-2′-O-Me-cAMPB (example 7) and Sp-2′-O-Me-cAMPS (Biolog, Bremen/Germany).

[5] = test system: PDE type I from bovine brain; test: Resistance towards phosphodiesterase: incubation with PDE type I from bovine brain, HPLC
Protocol: Activity of the enzyme was checked by hydrolysis of cyclic AMP. Stability was monitored by HPLC (RP-18, 11 Vol.-% propanol-2, 20 mM TEAF buffer, pH 6.8, 1 ml/min., UV 264 nm).

T2 sequence (P27815 whole entry): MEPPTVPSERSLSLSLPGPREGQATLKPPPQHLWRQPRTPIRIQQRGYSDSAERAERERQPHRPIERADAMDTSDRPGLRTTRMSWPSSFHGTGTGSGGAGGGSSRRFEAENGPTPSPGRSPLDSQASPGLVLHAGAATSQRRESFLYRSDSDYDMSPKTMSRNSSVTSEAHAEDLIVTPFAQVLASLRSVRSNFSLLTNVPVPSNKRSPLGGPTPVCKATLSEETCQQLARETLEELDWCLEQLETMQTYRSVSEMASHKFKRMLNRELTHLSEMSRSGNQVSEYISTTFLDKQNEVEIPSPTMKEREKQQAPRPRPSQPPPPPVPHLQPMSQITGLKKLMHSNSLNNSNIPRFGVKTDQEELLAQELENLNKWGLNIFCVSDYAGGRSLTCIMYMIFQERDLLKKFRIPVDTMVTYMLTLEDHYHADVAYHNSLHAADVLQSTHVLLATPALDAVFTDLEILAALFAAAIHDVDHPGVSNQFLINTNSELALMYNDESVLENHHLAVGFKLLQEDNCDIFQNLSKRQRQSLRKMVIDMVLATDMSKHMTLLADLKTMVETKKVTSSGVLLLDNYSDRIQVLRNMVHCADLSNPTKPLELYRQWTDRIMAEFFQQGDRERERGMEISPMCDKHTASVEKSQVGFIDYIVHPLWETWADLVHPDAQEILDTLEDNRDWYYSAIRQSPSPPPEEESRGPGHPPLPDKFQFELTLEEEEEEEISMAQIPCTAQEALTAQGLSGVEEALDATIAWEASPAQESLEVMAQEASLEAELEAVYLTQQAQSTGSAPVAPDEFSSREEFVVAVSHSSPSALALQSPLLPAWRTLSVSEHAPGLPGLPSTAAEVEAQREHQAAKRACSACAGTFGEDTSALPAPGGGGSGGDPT

Substance	modulation of protein kinase G [1]	stability against PDE IV [2]	HPLC signal area lost [3]	degradation by PDE [4]	degradation by PDE [5]
8-Bromoadenosine-3′,5′-cyclic boranophosphate, Rp-isomer [Rp-8-Br-cAMPB]	as potent or even better as guanine related compounds	completely stable	35%	completely stable	
8-Bromoadenosine-3′,5′-cyclic boranophosphate, Sp-isomer [Sp-8-Br-cAMPB]	as potent or even better as guanine related compounds		35%		no degradation was detected
